Assay results reported in PubChem BioAssay (NCI).
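Following 48 hours of exposure in 96-well plates, responses at five concentrations were used to interpolate endpoints linearly. GI50 marks 50% less growth. The concentration for full growth arrest is given as TGI.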

Experiments:
Assay in all cases: NCI-60 cell line screen, 48 h
786-0 renal = system: 786-0 renal
A549 NSCLC = system: A549 NSCLC
ACHN renal = system: ACHN renal
BT-549 breast = system: BT-549 breast
CAKI-1 renal = system: CAKI-1 renal
COLO 205 colon = system: COLO 205 colon
DU-145 prostate = system: DU-145 prostate
EKVX NSCLC = system: EKVX NSCLC
HCT-116 colon = system: HCT-116 colon
HCT-15 colon = system: HCT-15 colon
HL-60(TB) leukemia = system: HL-60(TB) leukemia
HOP-62 NSCLC = system: HOP-62 NSCLC
HOP-92 NSCLC = system: HOP-92 NSCLC
HT29 colon = system: HT29 colon
IGROV1 ovarian = system: IGROV1 ovarian
K-562 leukemia = system: K-562 leukemia
KM12 colon = system: KM12 colon
LOX IMVI melanoma = system: LOX IMVI melanoma
M14 melanoma = system: M14 melanoma
MALME-3M melanoma = system: MALME-3M melanoma
MCF7 breast = system: MCF7 breast
MDA-MB-231 breast = system: MDA-MB-231 breast
MDA-MB-435 = system: MDA-MB-435
MOLT-4 leukemia = system: MOLT-4 leukemia
NCI-H23 lung = system: NCI-H23 lung
NCI-H460 lung = system: NCI-H460 lung

CN(C)CCCNC(=O)c1ccc2oc3cc4ccccc4c(=O)n3c2c1 was tested, and the GI50 (786-0 renal) was > 50 µM, the TGI (786-0 renal) was > 50 µM and the GI50 (A549 NSCLC) was 27.6 µM. The TGI (A549 NSCLC) was > 50 µM, the GI50 (ACHN renal) was 11.8 µM and the TGI (ACHN renal) was > 50 µM. For the same compound, the GI50 (BT-549 breast) was 24.2 µM, the TGI (BT-549 breast) was > 50 µM and the GI50 (CAKI-1 renal) was 8.31 µM. The TGI (CAKI-1 renal) was 36.5 µM, the GI50 (COLO 205 colon) was 29.4 µM and the TGI (COLO 205 colon) was > 50 µM. The GI50 (DU-145 prostate) was 36.7 µM, the TGI (DU-145 prostate) was > 50 µM and the GI50 (EKVX NSCLC) was > 50 µM. For the same compound, the TGI (EKVX NSCLC) was > 50 µM, the GI50 (HCT-116 colon) was 30.8 µM and the TGI (HCT-116 colon) was > 50 µM. For the same compound, the GI50 (HCT-15 colon) was 23.8 µM, the TGI (HCT-15 colon) was > 50 µM and the GI50 (HL-60(TB) leukemia) was 29.8 µM. The TGI (HL-60(TB) leukemia) was > 50 µM, the GI50 (HOP-62 NSCLC) was > 50 µM and the TGI (HOP-62 NSCLC) was > 50 µM. For the same compound, the GI50 (HOP-92 NSCLC) was > 50 µM, the TGI (HOP-92 NSCLC) was > 50 µM and the GI50 (HT29 colon) was 15.4 µM. For the same compound, the TGI (HT29 colon) was 46.8 µM, the GI50 (IGROV1 ovarian) was 18.4 µM and the TGI (IGROV1 ovarian) was > 50 µM. For the same compound, the GI50 (K-562 leukemia) was 33.8 µM, the TGI (K-562 leukemia) was > 50 µM and the GI50 (KM12 colon) was 18.5 µM. For the same compound, the TGI (KM12 colon) was > 50 µM, the GI50 (LOX IMVI melanoma) was 10.8 µM and the TGI (LOX IMVI melanoma) was 27 µM. The GI50 (M14 melanoma) was 30.3 µM, the TGI (M14 melanoma) was > 50 µM and the GI50 (MALME-3M melanoma) was > 50 µM. For the same compound, the TGI (MALME-3M melanoma) was > 50 µM, the GI50 (MCF7 breast) was > 50 µM and the TGI (MCF7 breast) was > 50 µM. The GI50 (MDA-MB-231 breast) was 16.5 µM, the TGI (MDA-MB-231 breast) was > 50 µM and the GI50 (MDA-MB-435) was 31.6 µM. For the same compound, the TGI (MDA-MB-435) was > 50 µM, the GI50 (MOLT-4 leukemia) was > 50 µM and the TGI (MOLT-4 leukemia) was > 50 µM. For the same compound, the GI50 (NCI-H23 lung) was 17.9 µM, the TGI (NCI-H23 lung) was > 50 µM and the GI50 (NCI-H460 lung) was 16.6 µM.
